Assay results reported in US20250228824A1, “COMPOSITIONS AND METHODS FOR INHIBITION OF ITO AS TREATMENT FOR THE J WAVE SYNDROMES AND HYPOTHERMIA” (Lankenau Institute for Medical Research, priority 2021, published 2025).

Key:
[1] = tested on: CaV1.2 (ICa); assay: Whole-cell patch clamp of ICa in canine ventricular myocytes; assay type: cell-based; conditions: 10 μM; at 0 mV; control −5.13+0.77; shift not statistically significant
Procedure: Single myocytes were isolated from coronary-perfused canine right or left ventricular wedge preparations via enzymatic dissociation. Briefly, the wedge preparations were coronary perfused with nominally Ca^+2-free Tyrode's solution for a period of 15 min. They were then subjected to enzymatic digestion in nominally Ca^2+-free solution supplemented with 0.6 mg/ml collagenase (type II; Worthington) and 0.075 mg/ml protease (type XIV; Sigma) for 25-35 min. The wedge preparation was then perfused for 15 min with a taurine buffer solution containing (in mM): 108 NaCl, 10 HEPES, 11 D-glucose, 4 KCl, 1.2 MgSO4, 1.2 NaH2PO4, 50 taurine and 0.025 CaCl2. pH was adjusted to 7.4 using NaOH. After perfusion, thin slices of tissue were cut from the epicardial surface to obtain single epicardial cells as previously described.^6
ICa was measured in canine ventricular myocytes at 37° C. ICa was elicited by application of 300 ms steps from −50 to +40 mV. Extended protocols were avoided to prevent current rundown. Internal solution contained (in mM): 120 CsCl, 1 MgCl2, 10 EGTA, 5 Mg-ATP, 10 HEPES, 5 CaCl2. pH was adjusted to 7.2 with CsOH. External solution contained (in mM): 140 NaCl, 10 HEPES, 10 D-glucose, 4 KCl, 1 MgCl2, 2 CaCl2, 2 4-AP and 0.1 BaCl2.

[2] = tested on: coronary-perfused canine right (RV) and left (LV) ventricular wedge models of JWS; assay: Coronary-perfused ventricular wedge models of the J wave syndromes (NS5806 alone or with verapamil); set-up: QT interval / T wave amplitude / Epi (APD50) / Epi (APD90): unit not given here
Procedure: Ten hearts from purpose-bred adult male mongrel dogs (20-22 kg) were acquired from Covance (Denver, PA) and another 10 hearts from purpose-bred adult male Beagle dogs (10-16 kg) were obtained from Envigo (Denver, PA). Dogs were sedated with ketamine (10 mg/kg, IM) and xylazine 2 (mg/kg, IM). Prior to euthanasia (Euthasol solution: pentobarbital sodium and phenytoin sodium; 0.22 ml/kg, IV), and heparin (human pharmaceutical grade, 1,000 U/kg, IV) were administered 3-4 min before isolation of the hearts via a left thoracotomy. Retrograde aortic perfusion of the hearts with ice-cold cardioplegic solution (modified K-H solution; 16 mM KCl) was immediately performed to rinse the coronary vasculature of blood. The hearts were then placed in a sealed container containing ice-cold cardioplegic solution and transported to our institution via private courier in an insulated package filled with icepacks.
Transmural wedges were dissected from the base of the RV and LV. During the cannulation procedure, preparations were initially arterially perfused with cardioplegic solution. Next, the wedge preparations were placed in a tissue bath and perfused with a modified Krebs-Henseleit solution (K—H) bubbled with 95% O2/5% CO2 warmed to 37° C. The composition of K—H was (in mM): 118 NaCl, 4 KCl, 2 CaCl2, 1.2 MgSO4, 24 NaHCO3, 1.2 NaH2PO4, 2 Na Pyruvate and 10 D-Glucose. The perfusate was delivered at a constant pressure (45-50 mmHg). A transmural pseudo-ECG (ECG) was recorded using two Ag/AgCl half cells placed at ˜1 cm from the Epi (+) and Endo (−) surfaces along the same axis as the transmembrane action potential (AP) recordings. APs were simultaneously recorded from the immediate sub-Epi and M cell region (˜2-3 mm from the Endo surface) using floating glass microelectrodes. Pacing was applied to the Endo surface using bipolar silver electrodes insulated except at the tips (Basic Cycle Lengths [BCLs]: 500-2,000 ms). A detailed description of the arterially-perfused ventricular wedge preparation has been previously published.^5 ECG and AP signals were digitized and analyzed using Spike 2 for Windows (Cambridge Electronic Design, Cambridge, UK).
We used the Ito-agonist NS5806 (5-10 μM) alone or with the calcium-channel blocker verapamil (2.5 μM) to pharmacologically mimic the effects of the ion channel genetic defects underlying ERS and BrS. These provocative agents were added to the coronary perfusate in increasing concentrations until the characteristic ECG phenotypes were unmasked, including phase 2 reentry (P2R), closely coupled premature beats (CCPBs) and/or pVT/VF. AR-787 was added to the perfusate to test its ability to suppress or prevent arrhythmogenesis.

[3] = AR-787 10 μM following NS5806 5-10 μM, 3 LV wedges, BCL 800 msec

SMILES: Cc1nc(-n2cccc2)sc1C(=O)N=c1[nH]c2ccccc2[nH]1 [AR-787, N-(1H-benzimidazol-2-yl)-4-methyl-2-pyrrol-1-yl-thiazole-5-carboxamide]
- ICa peak density [1]: −6.95+1.88 pA/pF
- effect on NS5806-induced J wave syndrome phenotype ([2]; AR-787 10 μM after NS5806 5-10 μM): reversed these effects induced by NS5806
- Epi (APD50) [2, 3]: 173.9 ± 7.8
- Epi (APD90) [2, 3]: 209.0 ± 8.1
- J wave amplitude [2, 3]: 8.7 ± 5.7
- M (APD50) [2, 3]: 179.0 ± 11.4
- M (APD90) [2, 3]: 235.0 ± 11.1
- Ph1 mag (% Ph0) [2, 3]: 25.4 ± 4.9 % Ph0
- QT interval [2, 3]: 254.3 ± 10.0
- T wave amplitude [2, 3]: 19.0 ± 1.8
- manifestation of AP notch and ECG J wave ([2]; AR-787 1, 10 and 50 μM after NS5806 10 μM, LV and RV wedges): concentration-dependent diminution in the manifestation of the AP notch and associated ECG J wave
- QT interval ([2]; AR-787 1, 10 or 50 μM, NS5806 5-10 μM, five wedges): unaffected
- effect on NS5806-augmented Epi Ph1 magnitude and J wave amplitude ([2]; AR-787 1, 10 or 50 μM, NS5806 5-10 μM, five wedges (4 LV and 1 RV)): readily reversed the effect of NS5806
- ECG and arrhythmic manifestations (extrasystole, polymorphic VT) in ERS model ([2]; LV wedge, NS5806 10 μM and verapamil 2.5 μM, AR-787 10 μM, 30 min): reduced Phase 1 magnitude, restored the AP dome and totally suppressed all arrhythmic activity
- restoration of AP dome and suppression of Phase 2 reentry extrasystoles ([2]; RV wedge, 40 min NS5806 10 μM, AR-787 50 μM but not 10 μM): effective in fully restoring the AP dome and in totally suppressing this arrhythmic activity
